Test results taken from patent US8628788B2, “Formulations containing a non-oxidative biocide and a source of active halogen and use thereof in water treatment” (Bromine Compounds, Ltd., priority 2006, dated 2014).

Test system: Pseudomonas aeruginosa (ATCC 15442)
Test: Simulated biofilm (bacteria entrapped in alginate gel beads)
Type: cell-based
Conditions: 2.5 ppm DBNPA, 30 minutes contact time
From the text: The biofilm simulation was created by entrapping bacteria in alginate gel beads.

For `N#CC(Br)(Br)C(N)=O` [DBNPA, 2,2-Dibromo-3-nitrilopropionamide], the “log reduction (as compared to control)” value was 3 log reduction.
